Key:
SARS-CoV-2 nsp14 = SARS-CoV-2 nsp14 (Severe acute respiratory syndrome coronavirus 2, UniProt P0DTD1); assay: biochemical; conditions: 100 μM
SARS-CoV-2 nsp16/nsp10 = SARS-CoV-2 nsp16/nsp10 (Severe acute respiratory syndrome coronavirus 2, UniProt P0DTD1); assay: biochemical; conditions: 100 μM

Row | Structure (SMILES) | Percent inhibition at 100 μM, nsp14 (SARS-CoV-2 nsp14) [%] | Percent inhibition at 100 μM, nsp16 (SARS-CoV-2 nsp16/nsp10) [%]
1 | O=C(Nc1ccc(N2CCOCC2)cc1)c1oc2ccccc2c1CSc1nnc[nH]1 [ZINC000003404544] | 3 ±2 | 6 ±8
2 | O=C(NCc1cccnc1)C1CC(NCc2c(F)cccc2F)CN1Cc1ccccc1 (centres unmarked) [ZINC000020999776] | -2 ±4 | 8 ±5
3 | CN1CC(=O)N(c2cccc(NC(=O)NC[C@H](O)CO)c2)C1=O [ZINC000426716892] | -1 ±2 | 30 ±2
4 | Cc1ccc(Oc2ncccc2CNC(=O)c2cnc(O)cc2O)cn1 [ZINC000067754517] | 11 ±3 | 39 ±8
5 | Cn1cnn(CCC(=O)N2CCCC(c3nc4ccccc4s3)C2)c1=O (centres unmarked) [Compound 046-705-372] | 5 ±3 | 15 ±8
6 | Cc1ccc(NC(=O)Cn2c(=O)n(CC(=O)NCc3ccco3)c(=O)c3ccccc32)cc1C [ZINC000009617688] | 10 ±6 | -8 ±4
7 | CC(=O)c1cccc(OCc2cc(C(=O)NCC(N)=O)n[nH]2)c1 [ZINC000067920483] | 2 ±2 | -1 ±3
8 | O=C(CCc1cncnc1)N1CCCC(c2nc3ccccc3s2)C1 (centres unmarked) [Compound 046-723-388] | 5 ±3 | -45 ±13
9 | Cc1nn(C)c2ncc(NC(=O)c3ccccc3-c3ncc(-c4ccc(F)cc4)o3)cc12 [ZINC000032754717] | 14 ±6 | -24 ±9
10 | CCc1n[nH]c2c1CN(C(=O)c1cccc(-c3cc(O)nc(N)n3)c1)CC2 [ZINC000426470786] | 1 ±6 | 8 ±5
11 | Nc1ncnc2c1ncn2CC(O)CO (centres unmarked) [ZINC000000370772] | -9 ±12 | -34 ±9
12 | Cc1nc(CC(=O)N2CCCC(c3nc4ccccc4s3)C2)cs1 (centres unmarked) [Compound 021-760-906] | 10 ±2 | 28 ±6
13 | Nc1ncnc2c1ncn2[C@@H]1O[C@H](COS(=O)(=O)NC(=O)c2ccccc2O)[C@@H](O)[C@H]1O [ZINC000028567519] | 28 ±2 | 14 ±3
14 | CN(C)c1nc2c(c(=O)[nH]1)CCN(C(=O)c1n[nH]cc1Cl)C2 [ZINC000072172639] | -1 ±2 | 29 ±5
15 | CC1(O)Cc2n[nH]c(O)c2C(c2ccccc2)C1 (centres unmarked) [ZINC000035326963] | 4 ±8 | -2 ±6
16 | CC(C)Cn1c(CNC(=O)c2ccccc2C(F)(F)F)nnc1SCc1ccncc1 [ZINC000012152850] | 2 ±8 | 19 ±6
17 | CC[C@H](C)[C@H](N)C(=O)NS(=O)(=O)OC[C@H]1O[C@@H](n2cnc3c(N)ncnc32)[C@H](O)[C@@H]1O [ZINC000013488353] | 8 ±5 | 34 ±6
18 | Cc1cc(=O)n2c(n1)NC(N1CCOCC1)=NC2c1ccccc1 (centres unmarked) [ZINC000104279901] | -14 ±2 | -33 ±4
19 | O=C(CC1(O)C(=O)N(Cc2ccc3c(c2)OCO3)c2ccccc21)c1ccc(F)cc1 (centres unmarked) [ZINC000000783765] | -10 ±3 | -3 ±4
20 | CC(=O)Nc1ccn(C2OC(CO)C(O)C2O)c(=O)n1 (centres unmarked) [ZINC000001078602] | -15 ±5 | -9 ±1
21 | COc1ccc(N2C(=O)CC(c3c(C)[nH]n(-c4nc5ccccc5s4)c3=O)C2=O)cc1 (centres unmarked) [ZINC000018085229] | 11 ±6 | 17 ±6
22 | NS(=O)(=O)c1ccc(NC(=O)COC(=O)c2n[nH]c3ccccc23)cc1 [ZINC000005360401] | -15 ±7 | 3 ±1
23 | O=C(CCn1cncn1)N1CCC(c2nc3ccccc3s2)CC1 [Compound 009-436-708] | 2 ±1 | -114 ±6
24 | O=C(CCc1ccncc1)NC(c1ccccc1)C1CC(O)C1 (centres unmarked) [ZINC000252528037] | 13 ±2 | 36 ±3
25 | Cn1c(=O)c(=O)n(CC(=O)NCCN(CCc2ccccc2)Cc2ccco2)c2ccccc21 [ZINC000021649685] | 10 ±9 | 7 ±4
26 | Cc1[nH]c(-c2ccccc2)nc1C(=O)NCc1ccc2[nH]c(=O)[nH]c2c1 [ZINC000680227150] | 19 ±7 | 23 ±5
27 | O=C(Cc1csc(SCC(=O)c2ccccc2)n1)Nc1ccccc1 [Compound 005-296-365] | 27 ±2 | -17 ±4
28 | Cn1cc(CCC(=O)N2CCCC(c3nc4ccccc4s3)C2)cn1 (centres unmarked) [Compound 046-706-934] | 5 ±3 | -113 ±16

Row | Structure (SMILES) | Percent inhibition at 100 μM, nsp14 (SARS-CoV-2 nsp14) [%] | Percent inhibition at 100 μM, nsp16 (SARS-CoV-2 nsp16/nsp10) [%]
29 | COc1ccc(CCNC(=O)C2C3C=CC4(CN(c5ccc6c(c5)OCO6)C(=O)C24)O3)cc1 (centres unmarked) [ZINC000012895535] | 5 ±2 | -15 ±6
30 | NC(=O)Cn1cnc2c(cnn2CCO)c1=O [ZINC000004940485] | 2 ±0 | 6 ±6
31 | O=C(CCn1cncn1)N1CCCC1c1nc2ccccc2s1 (centres unmarked) [Compound 009-447-345] | 2 ±0 | 1 ±1
32 | Cc1cc(-c2ccc(C(=O)NCC(N)=O)cc2)nc(N2CCOCC2)n1 [ZINC000534574506] | 3 ±3 | 17 ±8
33 | COc1c(C)c2c(c(O)c1CC=C(C)CCC(=O)Nc1nnc[nH]1)C(=O)OC2 [ZINC000096115284] | 5 ±4 | -68 ±6
34 | Cn1nccc1CCC(=O)N1CCCC(c2nc3ccccc3s2)C1 (centres unmarked) [Compound 042-575-680] | 8 ±1 | 33 ±9
35 | CCOc1c(Cl)cc(C(=O)Nc2cccc(C(=O)O)c2)cc1Cl [ZINC000004649202] | -1 ±3 | 14 ±5
36 | COc1cccc(C2CC(O)=Nc3c2c(C)nn3-c2ncnc3[nH]cnc23)c1 (centres unmarked) [ZINC000020745418] | -8 ±5 | -7 ±2
37 | O=C(c1ccc(Cn2ccnc2)o1)N1CCc2[nH]c3ccc(Cl)cc3c2C1 [ZINC000072429175] | 0 ±4 | 6 ±5
38 | O=C(CP(=O)(O)O)N=c1[nH]c2ccc(Cl)cc2s1 [ZINC000020502712] | 7 ±6 | 17 ±7
39 | O=C(Cc1nnc(O)c2ccccc12)NCC(O)c1ccccc1 (centres unmarked) [ZINC000009340377] | 5 ±4 | 2 ±5
40 | O=C(CC1(C(=O)O)CC(c2ccc(F)cc2)=NO1)Nc1cccc(C(=O)O)c1 (centres unmarked) [ZINC000072406141] | 14 ±7 | 31 ±8
41 | O=C(CCc1nc2cc(Cl)ccc2[nH]1)N1CC[C@H](n2c(=O)[nH]c3cccnc32)C1 [ZINC1548405210] | 6 ±2 | 15 ±2
42 | O=C(CCc1n[nH]c2c1CCCC2)NCc1cc(O)ncn1 [ZINC000952975967] | 2 ±7 | -24 ±4
43 | O=C(O)c1cc(CN2CC[C@@H](c3ccc4ccccc4c3)[C@H](O)C2)ccc1O [ZINC000065452571] | -3 ±8 | -2 ±5
44 | O=C(c1ccc2c3c([nH]c2c1)CCCC3)N1CCC[C@H]1c1nc(-c2ccncc2)no1 [ZINC000952966781] | 11 ±10 | 24 ±5
45 | Nc1nc2c(c(=O)[nH]1)CC(CCc1ccc(C(=O)NC(CCC(=O)O)C(=O)O)cc1)CN2 (centres unmarked) [ZINC000077301924] | 5 ±6 | 15 ±10
46 | CCOc1ccccc1OCC(=O)N1CCCC(c2nc3ccccc3s2)C1 (centres unmarked) [Compound 005-679-672] | 6 ±0 | -59 ±2
47 | CC1=C(C(=O)O)N2C(=O)C(NC(=O)C(N)c3ccc(O)cc3)C2SC1 (centres unmarked) [ZINC000003830391] | -18 ±6 | -8 ±1
48 | O=C(Nc1ccccc1-c1ccccc1)C1CCCN(c2ccc(-n3cncn3)nn2)C1 (centres unmarked) [ZINC000096124096] | 9 ±7 | 10 ±1
49 | CCN(Cc1ccncc1)C(=O)CC1C(=O)NCCN1CCCc1ccccc1 (centres unmarked) [ZINC000011821342] | 5 ±5 | 17 ±11
50 | CC(=O)c1cnc(NC(C)c2nnc(CC(=O)O)[nH]2)nc1C (centres unmarked) [ZINC1772709012] | 16 ±13 | 32 ±8
51 | O=C(CN1C(=O)c2ccccc2N2C(=O)c3ccccc3C12)N1CCc2c([nH]c3ccccc23)C1 (centres unmarked) [ZINC000604419204] | 5 ±11 | -3 ±5
52 | Cn1nc(CC(=O)NCCCc2nnc3ccccn23)c2ccccc2c1=O [ZINC000095478169] | -6 ±2 | -53 ±8
53 | CC(C)CC(C(=O)OCC(=O)Nc1cccc(Cl)c1)N1C(=O)C2CC=CCC2C1=O (centres unmarked) [ZINC000019078629] | 8 ±3 | 37 ±9
54 | NS(=O)(=O)c1ccc(NC2=NC(=O)C(CC(=O)O)S2)cc1 (centres unmarked) [ZINC000001797008] | 0 ±2 | -35 ±10
55 | O=C(C1CCc2sc(-c3ccncc3)nc2C1)N1CCc2c(nc[nH]c2=O)C1 (centres unmarked) [ZINC1772809556] | 15 ±9 | 5 ±8

— paper PMC8705538, “Discovery of SARS-CoV-2 Nsp14 and Nsp16 Methyltransferase Inhibitors by High-Throughput Virtual Screening” (Pharmaceuticals, 2021)
